{"source": "patent US20200230126A1", "about": "“TARGETED THERAPEUTICS” (TARVEDA THERAPEUTICS, INC., priority 2017, published 2020)", "key": {"[1]": {"assay": "pH-dependent equilibrium of lactone ring and open chain carboxylic acid form in solution", "type": "physicochemical", "excerpt": "In solution, SDC-TRAP-0063 contains a lactone ring at pH-dependent equilibrium with the corresponding open chain carboxylic acid form."}, "[2]": {"assay": "Repeat dose GLP toxicity study in rats", "type": "in vivo, rat", "conditions": "for AUC(0-t): in vivo, 30 mg/kg, at the STD10 in the GLP toxicology study", "experimental": "(§1) The SDC-TRAP-0063 selected starting dose is 30 mg IV on D1, D8, and D15 of each 28-day cycle. ICH S9 recommends that a starting clinical dose for a first-in-human study should be either 1/10th of the STD10 in rodent toxicity studies or ⅙th of the HNSTD in non-rodent toxicity studies.\n(§2) Based on the findings in the repeat dose GLP toxicity study in rats, the dose of one-tenth the rat STD10 gives a Human Equivalent Dose (HED) of 0.48 mg/kg informing the SDC-TRAP-0063 first-in-human starting dose (Table 10). The calculation based on the dog highest non-severe toxic dose (HNSTD) of 20 mg/kg determined in the repeat dose GLP toxicity study in dogs is shown in Table 11 and results in a higher HED of 1.9 mg/kg substantiating that rat is the more sensitive species. The human starting dose of 0.48 mg/kg is equivalent to 18 mg/m^2. Assuming an average human weight of 60 kg, the starting dose translates to 29 mg or using an average body surface area of 1.7 m^2, the starting dose is 30 mg."}, "[3]": {"assay": "Repeat dose GLP toxicity study in dogs", "type": "in vivo, dog", "conditions": "for AUC(0-t): in vivo, 20 mg/kg, at the HNSTD, read-out: exposure (AUCt)", "experimental": "as §1, §2"}, "[4]": {"test_system": "mice xenografts", "assay": "Anti-tumor efficacy in mice xenografts", "type": "in vivo, mouse", "conditions": "once weekly administration", "experimental": "(§3) Exposures achieved in these toxicology studies exceed the levels anticipated to show anti-tumor activity, based on anti-tumor efficacy determined in mice. The minimum dose for anti-tumor efficacy in mice xenografts was determined to be 20 mg/kg with once weekly administration. […] This exposure is similar to that in rats at the STD10 in the GLP toxicology study where the AUCt values determined were 107 and 68 μg·h/mL in males and female rats, respectively. The mouse exposure is lower that the exposure at the HNSTD in dogs, 181 and 183 μg·h/mL in male and female dogs, respectively. Using body surface area, the dog HNSTD for SDC-TRAP-0063 is 6.6-fold higher than the minimum dose for efficacy in the mouse while the rat STD10 is 3 fold higher."}, "[5]": {"assay": "Exposure in mice", "conditions": "mouse, in vivo, 20 mg/kg dose", "experimental": "as §3"}, "[6]": {"test_system": "tumor cells", "assay": "DNA double-strand breaks in tumor cells", "type": "cell-based", "conditions": "treatment of tumor cells", "experimental": "The histone H2A variant H2AX (γ-H2AX) is an indicator of DNA double-strand breaks and is a sensitive marker of DNA damage response. During the DNA damage response, double-stranded breaks (DSB) are generated that result in the rapid phosphorylation of γ-H2AX. […] These DSBs can be quantitated by measuring γ-H2AX levels. In in vivo pharmacology studies, PDc response to SDC-TRAP-0063 was assessed by immunostaining for γ-H2AX and was associated with anti-tumor activity of SDC-TRAP-0063. γ-H2AX has been used in clinical studies to monitor DNA damage induced by topoisomerase I inhibition, ionizing radiation, or Weel inhibition. During Phase 1 only, for patients who sign the provision of optional tumor biopsies and hair follicle collections, levels of γ-H2AX are evaluated in paired tumor biopsies and hair follicles to check for evidence of SDC-TRAP-0063-induced DNA damage response. Based on the mechanism of action of SDC-TRAP-0063, it would be expected that evidence of DNA damage, as measured by γ-H2AX and/or other markers of DNA damage, would be greater in tumor tissue compared to hair follicle. It is estimated that 10 high quality pairs of tumor biopsies and hair follicles are needed to adequately explore the relationship between SDC-TRAP-0063 treatment and DNA damage response."}, "[7]": {"assay": "Light sensitivity of the diluted solution", "type": "physicochemical", "conditions": "duration of 6 hours", "excerpt": "The diluted solution is attached to an infusion set free of diethylhexyl-phthalate (DEHP) and containing a 0.2 micron filter."}, "[8]": {"conditions": "mg/kg human dose multiplied by 37"}}}
{"smiles": "CCc1c2c(nc3ccc(OC(=O)N4CCC(CCn5ccc6cc(-n7c(O)nnc7-c7cc(C(C)C)c(O)cc7O)ccc65)CC4)cc13)-c1cc3c(c(=O)n1C2)COC(=O)[C@]3(O)CC", "note": "[SDC-TRAP-0063]", "values": [{"measurement": "pKa", "setting": "[1]", "value": 9.3}, {"measurement": "HED of 1/10 Rat STD10", "setting": "[2]; 1/10 rat STD10 divided by 6.2 (60 kg human)", "value": 0.48, "unit": "mg/kg"}, {"measurement": "Rat 1/10 STD10", "setting": "[2]; mg/kg dose in rat multiplied by 6", "value": 18, "unit": "mg/m^2"}, {"measurement": "HED of 1/10 Rat STD10", "setting": "[2]; [8]", "value": 18, "unit": "mg/m^2"}, {"measurement": "1/10 Rat STD10", "setting": "[2]; rat", "value": 3.0, "unit": "mg/kg"}, {"measurement": "AUC(0-t)", "setting": "[2]; rat, female rats", "value": 68, "unit": "µg·h/mL"}, {"measurement": "AUC(0-t)", "setting": "[2]; rat, male rats", "value": 107, "unit": "µg·h/mL"}, {"measurement": "Rat STD10", "setting": "[2]; repeat dose GLP toxicity study in rats", "value": 30, "unit": "mg/kg"}, {"measurement": "rat STD10 relative to the minimum dose for efficacy in the mouse", "setting": "[2]; using body surface area", "value": 3, "unit": "fold"}, {"measurement": "HED of 1/6 Dog HNSTD", "setting": "[3]; 1/6 dog HNSTD divided by 1.8 (60 kg human)", "value": 1.9, "unit": "mg/kg"}, {"measurement": "1/6 Dog HNSTD", "setting": "[3]; dog", "value": 3.3, "unit": "mg/kg"}, {"measurement": "AUC(0-t)", "setting": "[3]; dog, female dogs", "value": 183, "unit": "µg·h/mL"}, {"measurement": "AUC(0-t)", "setting": "[3]; dog, male dogs", "value": 181, "unit": "µg·h/mL"}, {"measurement": "Dog 1/6 HNSTD", "setting": "[3]; mg/kg dose in dog multiplied by 20", "value": 67, "unit": "mg/m^2"}, {"measurement": "HED of 1/6 Dog HNSTD", "setting": "[3]; [8]", "value": 69, "unit": "mg/m^2"}, {"measurement": "Dog HNSTD", "setting": "[3]; repeat dose GLP toxicity study in dogs", "value": 20, "unit": "mg/kg"}, {"measurement": "dog HNSTD relative to the minimum dose for efficacy in the mouse", "setting": "[3]; using body surface area", "value": 6.6, "unit": "fold"}, {"measurement": "minimum dose for anti-tumor efficacy", "setting": "[4]", "value": 20, "unit": "mg/kg"}, {"measurement": "AUC(0-t)", "setting": "[5]", "value": 112, "unit": "µg·h/mL"}, {"measurement": "DNA double-stranded breaks (DSBs)", "setting": "[6]", "value": "induces DNA DSBs"}, {"measurement": "light sensitivity of the diluted solution", "setting": "[7]", "value": "not light sensitive"}]}
